From patent US10981957B2, “Peptides having antimicrobial activity and new enzyme capable of converting L-configured residue in D-configured amino acid in a peptide” (INSTITUT NATIONAL DE RECHERCHE POUR L'AGRICULTURE, …, priority 2015, dated 2021)
Read-outs that look alike come from different tables or passages of the source. Square brackets hold non-standard residues; d marks the D form. Ends that are not written are not given here. Peptide text beside a SMILES is read from it. d(aIle) = CC[C@H](C)[C@@H](N)C(=O)O

What was measured:
[1] = tested on: B. subtilis; assay type: cell-based, Bacillus subtilis; conditions: for Growth of B. subtilis in liquid LB medium: OD at 600 nm, FIG. 5B, FIG. 8a
Source text: (§1) FIG. 5—Activity of YydF18-49 of YydG. (FIG. 5A) Plate growth inhibition assay of B. subtilis in the presence of YydF18-49 or the epimierized product YydFb. (FIG. 5B) Growth of Bacillus subtilis in LB medium in the absence of peptide (□) or in the presence of the YydF18-49 peptide with a free C-terminus: Ac-[…] (SEQ ID No 20) containing either no modification (▪), a D-allo-lle (♦), a D-Val (⋄) or two-epimerized residues: Ac-GLLDESQKLAKVNDLWYF{d-V}KSKENRW{d-I}LGSGH (SEQ ID No 20) (▴). The OD values are the means of 3 independent cultures.
FIG. 8—(A) Growth of B. subtilis in liquid LB medium in the presence of YydF33-49 or YydF33-49DD. B. subtilis was grown in LB medium alone (♦), in the presence of YydF33-49 (□) (SEQ ID NO: 76, top) or YydF33-49DD (▪) (SEQ ID NO: 75, bottom). Each measurement is the mean of three growth experiments with the SD indicated. The epimerized residues are in black. (b) Growth ratio of B. subtilis in presence of YydF18-49 (100 μM) or YydF18-49DD (100, 10 or 1 μM). Ratios were determined by comparison with growth in the absence of peptide. (c) Growth ratio of B. subtilis in presence of YydF33-49 or YydF33-49DD (100, 10, 1, 0.1 or 0.01 μM). Ratios were determined by comparison with bacterial growth in the absence of peptide.
FIG. 9—Growth of B. subtilis in liquid LB medium in the presence of YydF18-49 (□) or after addition (arrow) of the YydF18-49DD (▪) after 3 hours of growth. Each measurement is the mean of three growth experiments with the SD indicated.
FIG. 10—Growth of B. subtilis in liquid LB medium in the presence of […] (a), YydF33_49AA (b) (SEQ ID NO: 66), YydF33_49vv (c) (SEQ ID NO: 67), YydF33_49II (d) (SEQ ID NO: 68), Peptide-SA1 (e) (SEQ ID NO: 62), Peptide-SA2 (f) (SEQ ID NO: 63), Peptide-SE (g) (SEQ ID NO: 64) or Peptide-SP (h) (SEQ ID NO: 65) at 100 μM. In bold, epimerized residues.
(§2) Inhibition Assay on Liquid Medium
(§3) An overnight culture of the bacterial strain to be assayed was freshly inoculated to sterile LB liquid medium. After 4 hours of bacterial growth at 37° C., the medium was diluted to 1/10,000 and inoculated into sterile liquid LB or BHI medium. Peptide solution was added ( 1/100) to a final concentration ranging from 0.01 to 100 μM and OD at 600 nm was recorded continuously using a Tecan microplate reader (Infinite® 200 PRO series).

[2] = tested on: Streptococcus agalactiae; test: Inhibition assay on liquid medium, Streptococcus agalactiae in BHI medium; assay type: cell-based; conditions: peptide at 100 μM; FIG. 12
Method: (§4) FIG. 12—Growth of Streptococcus agalactiae in liquid BHI medium in the presence of YydF33-49 (a), YydF33_49AA (b) (SEQ ID NO: 66), YydF33_49VV (c) (SEQ ID NO: 67), YydF33_49II (d) (SEQ ID NO: 68), Peptide-SA1 (e) (SEQ Ill NO: 62), Peptide-SA2 (f) (SEQ ID NO: 63), Peptide-SE (g) (SEQ ID NO: 64) or Peptide-SP (h) (SEQ ID NO: 65) at 100 μM. In bold, epimerized residues.
as §2, §3

[3] = tested on: B. subtilis; test: Inhibition assay on solid medium (plate growth inhibition assay); assay type: cell-based, Bacillus subtilis; conditions: 200 μg of peptide spotted, 37° C., FIG. 5A
Source text: as §1
Inhibition Assay on Solid Medium
An overnight culture of the bacterial strain to be assayed was freshly inoculated to sterile BHI liquid medium. After 4 hours of bacterial growth at 37° C., the medium was diluted to 1/1000 and inoculated into a soft agarose medium pre-heated at 42° C. The agarose medium containing bacteria was overlaid on a previously jellified sterile BHI agarose layer. 200 μg of peptide was spotted onto the plate and bacterial growth proceeded at 37° C.

[4] = tested on: Enterococcus faecalis; test: Inhibition assay on liquid medium, Enterococcus faecalis in BHI medium; assay type: cell-based; conditions: peptide at 100 μM; FIG. 11
Method: as §4, with “11—Growth” for “12—Growth”, “Enterococcus faecalis” for “Streptococcus agalactiae”, “ID” for “Ill”
as §2, §3

| Molecule | Growth of B. subtilis in liquid LB medium [1] | Growth of Streptococcus agalactiae in liquid BHI medium [2] | Growth of Enterococcus faecalis in liquid BHI medium [4] | other results |
| --- | --- | --- | --- | --- |
| CC[C@H](C)[C@@H](NC(=O)[C@H](Cc1c[nH]c2ccccc12)NC(=O)[C@H](CCCNC(=N)N)NC(=O)[C@H](CC(N)=O)NC(=O)[C@H](CCC(=O)O)NC(=O)[C@H](CCCCN)NC(=O)[C@H](CO)NC(=O)[C@H](CCCCN)NC(=O)[C@H](NC(=O)[C@H](Cc1ccccc1)NC(=O)[C@H](Cc1ccc(O)cc1)NC(=O)[C@@H](N)Cc1c[nH]c2ccccc12)C(C)C)C(=O)N[C@@H](CC(C)C)C(=O)NCC(=O)N[C@@H](CO)C(=O)NCC(=O)N[C@@H](Cc1c[nH]cn1)C(=O)O [YydF33-49DD] (H-WYF[dV]KSKENRW[d(aIle)]LGSGH-OH; N-terminus and C-terminus assumed) | inhibit bacterial growth | inhibited | – | MIC [1]: < 1 µM |
| Ac-GLLDESQKLAKVNDLWYFVKSKENRWILGSGH [YydF18-49] | – | – | – | inhibition growth of B. subtilis (plate growth inhibition assay) [3]: devoid of activity; cell density after addition of peptide at mid-exponential phase ([1]; B. subtilis, liquid LB medium, peptide added after 3 hours of growth, FIG. 9): a clear slow down followed by a decrease of the cell density |
| Ac-GLLDESQKLAKVNDLWYF{d-V}KSKENRW{d-I}LGSGH [YydF18-49DD] | bacterial growth inhibition | – | – | inhibition growth of B. subtilis (plate growth inhibition assay) [3]: strong inhibition growth; Growth of B. subtilis in liquid LB medium ([1]; listed as epimerized peptide): strong and persistent inhibition |
| WYFAKSKENRWALGSGH (YydF33_49AA) | – | inhibited | totally inhibited | – |
| WYFIKSKENRWILGSGH (also: epimerized D-residues, positions not given here) [YydF33-49II] | – | not | – | – |
| WYFVKSKENRWILGSGH [YydF33-49] | Only the YYdF33-49DD peptide proved to inhibit bacterial growth | – | – | – |
| WYFVKSKENRWVLGSGH (also: epimerized D-residues, positions not given here) [YydF33-49VV] | – | inhibited | – | – |
| WYFVKSKQNRWVVGSGH (Peptide-SE) | – | inhibitors | totally inhibited | – |
| WYFVRNSKNRWVAGSAH (Peptide-SA2) | – | inhibitors | significantly delayed | – |
| WYFVRSSKNRWVAGSAH (Peptide-SA1) | – | inhibitors | significantly delayed | – |
